“And” between values parts separate entries of the source, which are not always exact repeats. Equal values may be shown once. Read-outs that look alike come from different tables or passages of the source.
System: L-carnitine dehydrogenase (EC 1.1.1.108) produced by Alcaligenes sp. No. 981 FERM BP-2570
Assay: Km-value determination of L-carnitine dehydrogenase (diaphorase/NBT coupled reaction)
Type: biochemical
Source text: The L-carnitine dehydrogenase used in the composition for assay of L-carnitine according to the present invention can be an enzyme having reactivity on a substrate of L-carnitine together with a suitable coenzyme NAD or thio-NAD. Its suitability can be confirmed by using the said coenzyme and substrate. L-carnitine dehydrogenase produced by Alcaligenes sp. No. 981 (product of Toyo Jozo Co.) has a relative activity of approx. 15% when coenzyme thio-NAD is used, as compared to use of NAD.
Km-value for NAD is measured in various concentrations of NAD^* in a reaction mixture of:
100 mM Tris-HCl buffer (pH 9.0)
5U diaphorase (Toyo Jozo Co.)
0.025% NBT (Wako Pure Chem. Co.)
1% polyoxyethylene (20) sorbitan monooleate (80) (Wako Pure Chem. Co.) and
In the reaction mixture, 50 mM L-carnitine is replaced by 1 mM NAD , and the concentration of L-carnitine is varied to measure the Km-value of L-carnitine.
The results are as shown above.

`C[N+](C)(C)C[C@H](O)CC(=O)[O-]` [L-carnitine] gave a Km (L-carnitine concentration varied, 1 mM NAD, 100 mM Tris-HCl buffer (pH 9.0), diaphorase, NBT, read-out: Km-value (L-carnitine)) of 9300 µM.
`NC(=S)c1ccc[n+]([C@@H]2O[C@H](COP(=O)([O-])OP(=O)(O)OC[C@H]3O[C@@H](n4cnc5c(N)ncnc54)[C@H](O)[C@@H]3O)[C@@H](O)[C@H]2O)c1` [thio-NAD, thionicotinamide adenine dinucleotide] was tested, and the Km (coenzyme thio-NAD, under the same conditions as NAD, read-out: Km-value (thio-NAD)) was 400 µM.
`NC(=O)c1ccc[n+]([C@@H]2O[C@H](COP(=O)([O-])OP(=O)(O)OC[C@H]3O[C@@H](n4cnc5c(N)ncnc54)[C@H](O)[C@@H]3O)[C@@H](O)[C@H]2O)c1` [NAD, nicotinamide adenine dinucleotide] was tested, and the Km (NAD concentration varied, 50 mM L-carnitine, 100 mM Tris-HCl buffer (pH 9.0), diaphorase, NBT, read-out: Km-value (NAD)) was 140 µM and 141 µM.
